Measurements as given in the NIST ThermoML archive (doi:10.1016/j.fluid.2018.09.024).
± gives the expanded uncertainty stated by the source.

Experiment: activity coefficient (dimensionless); of the first substance listed, at infinite dilution; xn = mol fraction of the nth substance listed
Details: 101.33 kPa, Liquid, Chromatography, x1 = 0

Compound	activity coefficient (318.15 K)	activity coefficient (328.15 K)	activity coefficient (338.15 K)	activity coefficient (348.15 K)	activity coefficient (358.15 K)	activity coefficient (368.15 K)	activity coefficient (378.15 K)
CCCc1ccccc1 [propylbenzene] + CCCCCCCCCCCC[N+](C)(C)CCOc1ccccc1.O=S(=O)([N-]S(=O)(=O)C(F)(F)F)C(F)(F)F	1.09 ± 0.07	1.15 ± 0.07	1.2 ± 0.08	1.26 ± 0.08	1.32 ± 0.09	1.37 ± 0.09	–
CC(C)OC(C)C [diisopropyl ether] + CCCCCCCCCCCC[N+](C)(C)CCOc1ccccc1.O=S(=O)([N-]S(=O)(=O)C(F)(F)F)C(F)(F)F	1.9 ± 0.13	1.97 ± 0.13	2.03 ± 0.14	2.1 ± 0.14	2.16 ± 0.15	2.22 ± 0.15	–
CCC(C)CC [3-methylpentane] + CCCCCCCCCCCC[N+](C)(C)CCOc1ccccc1.N#C[N-]C#N	–	5.3 ± 0.36	5.37 ± 0.37	5.41 ± 0.37	5.46 ± 0.37	5.5 ± 0.37	5.5 ± 0.37
C1CCCCCCC1 [cyclooctane] + CCCCCCCCCCCC[N+](C)(C)CCOc1ccccc1.N#C[N-]C#N	–	3.56 ± 0.24	3.63 ± 0.25	3.69 ± 0.25	3.72 ± 0.25	3.76 ± 0.26	3.79 ± 0.26
CCCCCCCCC [nonane] + CCCCCCCCCCCC[N+](C)(C)CCOc1ccccc1.O=S(=O)([N-]S(=O)(=O)C(F)(F)F)C(F)(F)F	4.77 ± 0.33	4.87 ± 0.33	4.96 ± 0.34	5.03 ± 0.34	5.12 ± 0.35	5.18 ± 0.35	–
CCC(=O)OC [methyl propanoate] + CCCCCCCCCCCC[N+](C)(C)CCOc1ccccc1.N#C[N-]C#N	–	1.13 ± 0.07	1.16 ± 0.07	1.19 ± 0.08	1.22 ± 0.08	1.25 ± 0.08	1.28 ± 0.08
CO [methanol] + CCCCCCCCCCCC[N+](C)(C)CCOc1ccccc1.O=S(=O)([N-]S(=O)(=O)C(F)(F)F)C(F)(F)F	1.1 ± 0.07	1.06 ± 0.07	1.04 ± 0.07	1.01 ± 0.06	0.982 ± 0.062	0.964 ± 0.061	–
CC#N [acetonitrile] + CCCCCCCCCCCC[N+](C)(C)CCOc1ccccc1.O=S(=O)([N-]S(=O)(=O)C(F)(F)F)C(F)(F)F	0.473 ± 0.037	0.489 ± 0.037	0.506 ± 0.038	0.523 ± 0.039	0.539 ± 0.039	0.555 ± 0.04	–
C#CCCCC [1-hexyne] + CCCCCCCCCCCC[N+](C)(C)CCOc1ccccc1.O=S(=O)([N-]S(=O)(=O)C(F)(F)F)C(F)(F)F	1.26 ± 0.08	1.33 ± 0.09	1.39 ± 0.09	1.45 ± 0.1	1.51 ± 0.1	1.57 ± 0.1	–
C=CCCC [1-pentene] + CCCCCCCCCCCC[N+](C)(C)CCOc1ccccc1.N#C[N-]C#N	–	3.3 ± 0.22	3.36 ± 0.23	3.42 ± 0.23	3.48 ± 0.24	3.54 ± 0.24	3.61 ± 0.25
CCCCCCCC [octane] + CCCCCCCCCCCC[N+](C)(C)CCOc1ccccc1.N#C[N-]C#N	–	6.7 ± 0.46	6.8 ± 0.46	6.87 ± 0.47	6.96 ± 0.47	7.07 ± 0.48	7.15 ± 0.49
CCC(C)(C)OC [2-methoxy-2-methylbutane] + CCCCCCCCCCCC[N+](C)(C)CCOc1ccccc1.N#C[N-]C#N	–	2.49 ± 0.17	2.56 ± 0.17	2.63 ± 0.18	2.69 ± 0.18	2.75 ± 0.19	2.81 ± 0.19
CCC(C)O (stereo not given) [butan-2-ol] + CCCCCCCCCCCC[N+](C)(C)CCOc1ccccc1.N#C[N-]C#N	–	0.495 ± 0.038	0.508 ± 0.038	0.522 ± 0.039	0.536 ± 0.039	0.55 ± 0.04	0.564 ± 0.041
CCCCCCCC [octane] + CCCCCCCCCCCC[N+](C)(C)CCOc1ccccc1.O=S(=O)([N-]S(=O)(=O)C(F)(F)F)C(F)(F)F	4.05 ± 0.28	4.14 ± 0.28	4.23 ± 0.29	4.32 ± 0.29	4.41 ± 0.3	4.5 ± 0.31	–
Cc1ccccc1C [1,2-dimethylbenzene] + CCCCCCCCCCCC[N+](C)(C)CCOc1ccccc1.N#C[N-]C#N	–	1.23 ± 0.08	1.28 ± 0.08	1.32 ± 0.09	1.36 ± 0.09	1.4 ± 0.09	1.43 ± 0.09
